We go through nine compounds from US12624368B2 (priority 2018, dated 2026).

≈ marks a conversion by molar mass, not a printed value. Entries after “also recorded” stand apart in the source; their conditions may differ. Where two headings read alike, the source gives them in different places. Where a SMILES comes first, the peptide text is derived from it.

Series [1] can be described thus: in vitro. The conditions noted are these: human.
A short description of series [2]: in vitro. The conditions noted are these: dog.
The test system of series [3] is A(H1N1)pdm09 virus. It counts as cell-based, influenza A virus A(H1N1)pdm09.
Series [4] concerns HA mediated membrane fusion. The conditions noted are these: pH 5.
Series [5] deals with A(H7N7) virus. The settings on record: 1 h.
Series [6] relates to endosomal acidification in MDCK cells. It counts as cell-based, canine.
The subject of series [7] is A(H1N1)pdm09 virus. The conditions noted are these: 1 h.
For series [8], the system named is A(H7N7) virus. On the set-up: species or system BALB/c mice. The settings on record: mouse, in vivo.
The subject of the next series is endosomal acidification. The conditions noted are these: cited from earlier work.
The subject of series [9] is A(H1N1)pdm09 virus. On the set-up: species or system BALB/c mice. The settings on record: in vivo.
Series [10] concerns A(H7N7) and A(H1N1)pdm09 virus. It counts as cell-based, influenza A virus. The settings on record: 0-8,000 nM.
The next series relates to 293T cells. It counts as cell-based, human.
For the next series, the system named is mouse lungs. The settings on record: in vivo.
Where [11] appears, read: MDCK cells, P1 25.0 μg ml^−1, TAT-P1 3.1 μg ml^−1, bafilomycin A1 100.0 nM, PA1 25.0 μg ml^−1.

For the compound `CC[C@H](C)[C@H](NC(=O)[C@H](CCC(N)=O)NC(=O)[C@H](CCCNC(=N)N)NC(=O)[C@H](Cc1ccccc1)NC(=O)[C@H](C)NC(=O)[C@@H](NC(=O)[C@@H]1CCCN1C(=O)[C@H](CS)NC(=O)[C@@H]1CCCN1C(=O)CNC(=O)[C@H](Cc1c[nH]c2ccccc12)NC(=O)[C@@H](N)CS)[C@@H](C)O)C(=O)NCC(=O)N[C@@H](CC(N)=O)C(=O)N[C@@H](CS)C(=O)NCC(=O)N[C@@H](CCCNC(=N)N)C(=O)N[C@@H](Cc1ccccc1)C(=O)N[C@@H](CCCNC(=N)N)C(=O)N[C@H](C(=O)N[C@@H](CCCNC(=N)N)C(=O)N[C@@H](CS)C(=O)N[C@@H](CS)C(=O)N[C@@H](CCCNC(=N)N)C(=O)N[C@H](C(=O)N[C@@H](CCCNC(=N)N)C(=O)O)[C@@H](C)CC)C(C)C` [P1] (H-CWGPCPTAFRQIGNCGRFRVRCCRIR-OH), the CC50 in the series “in vitro [1]” and in the series “in vitro [2]” was more than 400 µg/mL in each case. In addition, the “viral RNP release into the nuclei” value with A(H1N1)pdm09 virus [3] was “blocked viral RNP release into the nuclei”. Further, in [4], the HA-mediated membrane fusion entry was “did not inhibit HA-mediated membrane fusion”. Further, in the series with H7N7 virus, the “viral replication in 293T cells (viral titers by plaque assay)” value was “could significantly inhibit viral replication”. Further, the “IC50 (H7N7)” value with A(H7N7) virus [5] is 1.56 µg/mL (≈ 0.51 µM). In [6], the endosomal acidification entry is recorded as “prevented endosomal acidification”.

For `N=C(N)NCCC[C@H](NC(=O)[C@H](CCCNC(=N)N)NC(=O)[C@H](CCCNC(=N)N)NC(=O)[C@H](CCC(N)=O)NC(=O)[C@H](CCCNC(=N)N)NC(=O)[C@H](CCCNC(=N)N)NC(=O)[C@H](CCCCN)NC(=O)[C@H](CCCCN)NC(=O)[C@H](CCCNC(=N)N)NC(=O)CNC(=O)[C@@H](N)Cc1ccc(O)cc1)C(=O)O` [TAT, YGRKKRRQRRR (SEQ ID NO: 7), reference compound], the CC50 in “in vitro [1]” and in “in vitro [2]” was more than 400 µg/mL each time. Besides, in the series with A(H7N7) virus [5], the “IC50 (H7N7)” value is more than 50.0 µg/mL. For the same compound, the “IC50 (H1N1)” value in the series on A(H1N1)pdm09 virus [7] is more than 50.0 µg/mL.

For the compound `CC[C@H](C)[C@H](NC(=O)[C@H](CCC(N)=O)NC(=O)[C@H](CCCNC(=N)N)NC(=O)[C@H](Cc1ccccc1)NC(=O)[C@H](C)NC(=O)[C@@H](NC(=O)[C@@H]1CCCN1C(=O)[C@H](CS)NC(=O)[C@@H]1CCCN1C(=O)CNC(=O)[C@H](Cc1c[nH]c2ccccc12)NC(=O)[C@H](CS)NC(=O)[C@H](CCCNC(=N)N)NC(=O)[C@H](CCCNC(=N)N)NC(=O)[C@H](CCCNC(=N)N)NC(=O)[C@H](CCC(N)=O)NC(=O)[C@H](CCCNC(=N)N)NC(=O)[C@H](CCCNC(=N)N)NC(=O)[C@H](CCCCN)NC(=O)[C@H](CCCCN)NC(=O)[C@H](CCCNC(=N)N)NC(=O)CNC(=O)[C@@H](N)Cc1ccc(O)cc1)[C@@H](C)O)C(=O)NCC(=O)N[C@@H](CC(N)=O)C(=O)N[C@@H](CS)C(=O)NCC(=O)N[C@@H](CCCNC(=N)N)C(=O)N[C@@H](Cc1ccccc1)C(=O)N[C@@H](CCCNC(=N)N)C(=O)N[C@H](C(=O)N[C@@H](CCCNC(=N)N)C(=O)N[C@@H](CS)C(=O)N[C@@H](CS)C(=O)N[C@@H](CCCNC(=N)N)C(=O)N[C@H](C(=O)N[C@@H](CCCNC(=N)N)C(=O)O)[C@@H](C)CC)C(C)C` [TAT-P1] (H-YGRKKRRQRRRCWGPCPTAFRQIGNCGRFRVRCCRIR-OH), the CC50 in “in vitro [1]” stood at 226 µg/mL (≈ 49.1 µM); in “in vitro [2]” it was 300 µg/mL (≈ 65.2 µM). The “viral RNP release into the nuclei” value with A(H1N1)pdm09 virus [3] is “blocked viral RNP release into the nuclei”. For the same compound, the HA-mediated membrane fusion entry in series [4] is listed as “did not inhibit HA-mediated membrane fusion”. Moreover, the “viral replication in 293T cells (viral titers by plaque assay)” value in the series on H7N7 virus was “could significantly inhibit viral replication”. The compound further returned a survival in the series with A(H7N7) virus [8] of 30%. Further, the endosomal acidification result in series [6] (setting [11]) is on record as “prevented endosomal acidification”.

On to `CC[C@H](C)[C@H](NC(=O)[C@H](CCCNC(=N)N)NC(=O)[C@H](CS)NC(=O)[C@H](CS)NC(=O)[C@H](CCCNC(=N)N)NC(=O)[C@@H](NC(=O)[C@H](CCCNC(=N)N)NC(=O)[C@H](Cc1ccccc1)NC(=O)[C@H](CCCNC(=N)N)NC(=O)CNC(=O)[C@H](CS)NC(=O)[C@H](CC(N)=O)NC(=O)[C@H](CCCNC(=N)N)NC(=O)[C@H](CCCCN)NC(=O)[C@H](CCCNC(=N)N)NC(=O)[C@H](Cc1ccccc1)NC(=O)[C@H](C)NC(=O)[C@H](CCCNC(=N)N)NC(=O)[C@@H]1CCCN1C(=O)[C@H](CS)NC(=O)[C@@H]1CCCN1C(=O)[C@H](CCCNC(=N)N)NC(=O)[C@H](Cc1c[nH]c2ccccc12)NC(=O)[C@H](CS)NC(=O)[C@H](CCCNC(=N)N)NC(=O)[C@H](CCCNC(=N)N)NC(=O)[C@H](CCCNC(=N)N)NC(=O)[C@H](CCC(N)=O)NC(=O)[C@H](CCCNC(=N)N)NC(=O)[C@H](CCCNC(=N)N)NC(=O)[C@H](CCCCN)NC(=O)[C@H](CCCCN)NC(=O)[C@H](CCCNC(=N)N)NC(=O)CNC(=O)[C@@H](N)Cc1ccc(O)cc1)[C@@H](C)CC)C(=O)N[C@@H](CCCNC(=N)N)C(=O)O` [TAT-P2] (H-YGRKKRRQRRRCWRPCPRAFRKRNCGRFRIRCCRIR-OH; N-terminus and C-terminus assumed), for which the results for the CC50 in “in vitro [1]” and in the series “in vitro [2]” were 154 µg/mL (≈ 32.4 µM) and 160 µg/mL (≈ 33.7 µM), respectively.

For the compound `CC[C@H](C)[C@H](NC(=O)[C@H](CCCNC(=N)N)NC(=O)[C@H](CS)NC(=O)[C@H](CCCNC(=N)N)NC(=O)[C@@H](NC(=O)[C@H](CCCNC(=N)N)NC(=O)[C@H](Cc1ccccc1)NC(=O)[C@H](CCCNC(=N)N)NC(=O)CNC(=O)[C@H](CS)NC(=O)[C@H](CC(C)C)NC(=O)[C@H](CCC(N)=O)NC(=O)[C@H](CCCNC(=N)N)NC(=O)[C@H](Cc1ccccc1)NC(=O)[C@H](CO)NC(=O)[C@@H]1CCCN1C(=O)[C@H](CS)NC(=O)[C@@H]1CCCN1C(=O)[C@H](CCCNC(=N)N)NC(=O)[C@H](Cc1c[nH]c2ccccc12)NC(=O)[C@H](CS)NC(=O)[C@H](CCCNC(=N)N)NC(=O)[C@H](CCCNC(=N)N)NC(=O)[C@H](CCCNC(=N)N)NC(=O)[C@H](CCC(N)=O)NC(=O)[C@H](CCCNC(=N)N)NC(=O)[C@H](CCCNC(=N)N)NC(=O)[C@H](CCCCN)NC(=O)[C@H](CCCCN)NC(=O)[C@H](CCCNC(=N)N)NC(=O)CNC(=O)[C@@H](N)Cc1ccc(O)cc1)[C@@H](C)CC)C(=O)N[C@@H](CCCNC(=N)N)C(=O)O` [TAT-P3] (H-YGRKKRRQRRRCWRPCPSFRQLCGRFRIRCRIR-OH; N-terminus and C-terminus assumed), the CC50 in the series “in vitro [1]” was determined as 205 µg/mL (≈ 47.1 µM); in “in vitro [2]” it was 207 µg/mL (≈ 47.6 µM).

Take `CCN(CC)CCCC(C)Nc1ccnc2cc(Cl)ccc12` (stereo not drawn) [chloroquine]: in the series on endosomal acidification, the “effective concentrations for inhibiting endosomal acidification” value was approximately 100 µM.

For `CC(=O)N[C@H]1[C@H]([C@H](O)[C@H](O)CO)OC(C(=O)O)=C[C@@H]1N=C(N)N` [zanamivir], in the series on A(H7N7) virus [8], the body weight loss entry was “significantly less body weight loss” and the survival came to 40%. Further, the “viral titers in mouse lungs” value in the series on A(H1N1)pdm09 virus [9] is “significantly reduced”. In the series with A(H1N1)pdm09 virus [9] (mouse), the “IL-6 expression in mice” value is reported as “significantly reduced”, the body weight loss result is recorded as “significantly reduced” and the survival is on record as 90%. Besides, the “susceptibility of A(H7N7) virus to zanamivir compared with A(H1N1)pdm09 virus” value in [10] was “reduced susceptibility; also recorded: reduced sensitivity of A(H7N7) virus to zanamivir”.

Consider Bafilomycin A1 [reference compound], for which the “effect of added agent on transfection efficiency of TAT-P1/pLuc” value in the series with 293T cells is reported as “increased”. Besides, the “viral RNP release into the nuclei” value in the series with A(H1N1)pdm09 virus [3] was “blocked viral RNP release into the nuclei”. The endosomal acidification entry in series [6] (setting [11]) is recorded as “prevented endosomal acidification”.

As for “NGAICWGPCPTAFRQIG NCGHFKVRCCKIRDED (SEQ ID NO: 9) [PA1, reference compound]”, the “effect of added agent on transfection efficiency of TAT-P1/pLuc” value in the series on 293T cells was “did not improve the transfection efficiency”. Moreover, in the series on mouse lungs, the “effect of added peptide on transfection efficiency of TAT-P1/pLuc in mouse lungs” value is “did not improve the transfection efficiency”. Also, the endosomal acidification entry in series [6] was “did not prevent endosomal acidification”.
